The record followed here is patent US9212196B2, “Hypophosphorous acid derivatives having antihyperalgic activity and biological applications thereof” (UNIVERSITE PARIS DESCARTES, priority 2011, dated 2015).

The test system of assay [1] is healthy rats. Kind of assay: Paw pressure test in healthy rats. In kind it is in vivo, rat. To be noted: i.t., FIG. 1. The procedure:
After the induction period of the neuropathy or inflammation, various amounts of derivative 2 dissolved in serum have been injected in rats, (from 0.5 to 15 μg/rat, i.t. from 1 to 30 mg/kg, i.p.) on time-course of vocalization threshold to paw pressure. The results obtained on healthy animals are given on FIG. 1. They are expressed by the time course curves of means+/−SEM of vocalization threshold in grams (n=6-8 rats per group) (A) or by the area under the curve (B). Morphine (10 μg/rat, i.t.) is used as a positive control.
The animals were submitted to the paw pressure test previously described by Randall and Selitto (1957). Nociceptive thresholds, expressed in grams (g), were measured with a Ugo Basile analgesimeter (Apelex, tip diameter of the probe: 1 mm, weight: 30 g) by applying an increasing pressure to the right hind paw of rats until a squeak (vocalization threshold) was obtained (cut-off was 750 g except carrageenan treated animals for which the cut-off was 500 g). The treatments were done after the measurement of two consecutive stable vocalization threshold values and their effects were assessed 15, 30, 45, 60, 90, and 120 min after.
Intrathecal injections were performed, under isoflurane anesthesia (4% induction, 2% maintenance), as previously described (Mestre et al., 1994). […]

Assay [2] concerns the target mGlu4 (Homo sapiens (Human), UniProt Q14833). Briefly: Agonist activity on mGlu4 in transfected HEK293 cells, intracellular calcium release (Fluo4-AM). The format is cell-based. To be noted: transfected cells, calcium release; read-out: mGlu4 EC50 μM (n). From the text: (§1) The EC50's are compared to those of L-AP4 (L-2-amino-4-phosphonobutyric acid) used as a reference.
(§2) Metabotropic glutamate receptors were transiently transfected in HEK293 cells by electroporation as described elsewhere (Brabet I. et al., 1998) and plated in 96-well microplates. The high affinity glutamate transporter EAAC1 was co-transfected with the receptor in order to avoid any influence of glutamate released by the cells in the assay medium. In the experiments carried out by the inventors, Group-III mGluRs were co-transfected with a chimeric G-protein which couples the activation of the receptor to the phospholipase-C (PLC) pathway. Thus receptor activation induces production of inositol phosphate (IP) which in turn induces intracellular Ca^2+ release. Receptor activity was then determined by measurement of the IP production or Ca release as already described (Goudet C. et al., PNAS 2004). For intracellular calcium measurements, cells expressing mGluRs were loaded with Ca2+-sensitive fluorescent dye Fluo-4 AM (Invitrogen, Cergy-Pontoise, France) dissolved in Hanks' balanced salt solution (HBSS, Invitrogen, Cergy-Pontoise, France) containing 2.5 mM Probenicid (Sigma-Aldrich Chemie, Saint-Quentin Fallavier, France) for 1 h at 37° C., then washed and incubated with HBSS containing probenecid. A drug plate was prepared with the various concentrations of agonist to be tested and drug solution was added in each well after 20 s of recording. Fluorescence signals (excitation 485 nm, emission 525 nm) were measured by using the fluorescence microplate reader Flexstation III (Molecular Devices, Saint-Grégoire, France) at sampling intervals of 1.5 s for 60 s. All points are realized in triplicate.
(§3) The dose-response curves were fitted using the GraphPad Prism program and the following equation: y=[(ymax−ymin)/(1+(x/EC50)n)]+ymin where EC50 is the concentration of the compound necessary to obtain the half maximal effect and n is the Hill coefficient.
A general note: A change in cytosolic calcium serves as a functional read-out for many receptors and channels.

The subject of assay [3] is mGlu7. Briefly: Agonist activity on mGlu7 in transfected HEK293 cells, intracellular calcium release (Fluo4-AM). In kind it is cell-based. The conditions noted are these: ratio of mGlu7 EC50 to mGlu4 EC50.
Source text: as §1, §2, §3

Assay [4] addresses mGlu7 (Homo sapiens (Human), UniProt Q14831). The description is as above. To be noted: transfected cells, calcium release; read-out: mGlu7 EC50 μM (n). The format is cell-based.
Source text: as §1, §2, §3

For assay [5], the target named is mGlu8 (Homo sapiens (Human), UniProt O00222). Kind of assay: Agonist activity on mGlu8 in transfected HEK293 cells, intracellular calcium release (Fluo4-AM). In kind it is cell-based.
Sequence of mGlu8 (O00222 34-908): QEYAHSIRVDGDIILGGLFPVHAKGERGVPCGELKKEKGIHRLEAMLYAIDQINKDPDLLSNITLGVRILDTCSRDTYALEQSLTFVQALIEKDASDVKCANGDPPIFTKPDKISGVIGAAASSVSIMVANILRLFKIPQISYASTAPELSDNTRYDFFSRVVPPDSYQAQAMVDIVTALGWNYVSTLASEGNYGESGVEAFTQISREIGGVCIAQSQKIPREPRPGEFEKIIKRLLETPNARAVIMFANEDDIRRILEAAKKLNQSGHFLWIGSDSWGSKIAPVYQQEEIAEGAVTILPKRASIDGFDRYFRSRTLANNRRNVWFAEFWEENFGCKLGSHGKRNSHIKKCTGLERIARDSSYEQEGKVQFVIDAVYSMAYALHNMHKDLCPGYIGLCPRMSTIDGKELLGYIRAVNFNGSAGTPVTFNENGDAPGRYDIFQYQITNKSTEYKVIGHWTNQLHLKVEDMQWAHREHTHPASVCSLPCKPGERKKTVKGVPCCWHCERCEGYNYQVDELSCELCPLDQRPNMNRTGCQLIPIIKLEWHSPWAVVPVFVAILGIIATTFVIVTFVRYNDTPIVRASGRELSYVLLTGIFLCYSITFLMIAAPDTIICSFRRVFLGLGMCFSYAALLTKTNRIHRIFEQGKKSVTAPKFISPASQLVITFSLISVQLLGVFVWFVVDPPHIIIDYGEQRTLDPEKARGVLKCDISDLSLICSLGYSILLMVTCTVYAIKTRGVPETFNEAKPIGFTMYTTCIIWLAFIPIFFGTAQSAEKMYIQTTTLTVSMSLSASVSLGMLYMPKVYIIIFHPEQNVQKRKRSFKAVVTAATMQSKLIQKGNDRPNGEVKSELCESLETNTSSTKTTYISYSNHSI
Source text: as §1, §2, §3

Assay [6] has as its system carrageenan inflammatory pain model. Kind of assay: Paw pressure test in carrageenan inflammatory pain model in rats. The format is in vivo, rat. Here is the method:
After the induction period of the neuropathy or inflammation, various amounts of derivative 2 dissolved in serum have been injected in rats, (from 0.5 to 15 μg/rat, i.t. from 1 to 30 mg/kg, i.p.) on time-course of vocalization threshold to paw pressure. The results obtained on healthy animals are given on FIG. 1. They are expressed by the time course curves of means+/−SEM of vocalization threshold in grams (n=6-8 rats per group) (A) or by the area under the curve (B). Morphine (10 μg/rat, i.t.) is used as a positive control. […] FIG. 2 illustrates the effect of intrathecal administration of derivative 2 on the vocalization threshold to paw pressure in the carrageenan inflammatory pain model (effect of derivative 2 (0.5, 1, 5, 10 μg/rat, i.t.) on time-course of vocalization threshold to paw pressure). Morphine (10 μg/rat, i.t.) is used as a positive control. […] Nociceptive thresholds, expressed in grams (g), were measured with a Ugo Basile analgesimeter (Apelex, tip diameter of the probe: 1 mm, weight: 30 g) by applying an increasing pressure to the right hind paw of rats until a squeak (vocalization threshold) was obtained (cut-off was 750 g except carrageenan treated animals for which the cut-off was 500 g). The treatments were done after the measurement of two consecutive stable vocalization threshold values and their effects were assessed 15, 30, 45, 60, 90, and 120 min after. […]

Sequence of mGlu4 (Q14833 33-912): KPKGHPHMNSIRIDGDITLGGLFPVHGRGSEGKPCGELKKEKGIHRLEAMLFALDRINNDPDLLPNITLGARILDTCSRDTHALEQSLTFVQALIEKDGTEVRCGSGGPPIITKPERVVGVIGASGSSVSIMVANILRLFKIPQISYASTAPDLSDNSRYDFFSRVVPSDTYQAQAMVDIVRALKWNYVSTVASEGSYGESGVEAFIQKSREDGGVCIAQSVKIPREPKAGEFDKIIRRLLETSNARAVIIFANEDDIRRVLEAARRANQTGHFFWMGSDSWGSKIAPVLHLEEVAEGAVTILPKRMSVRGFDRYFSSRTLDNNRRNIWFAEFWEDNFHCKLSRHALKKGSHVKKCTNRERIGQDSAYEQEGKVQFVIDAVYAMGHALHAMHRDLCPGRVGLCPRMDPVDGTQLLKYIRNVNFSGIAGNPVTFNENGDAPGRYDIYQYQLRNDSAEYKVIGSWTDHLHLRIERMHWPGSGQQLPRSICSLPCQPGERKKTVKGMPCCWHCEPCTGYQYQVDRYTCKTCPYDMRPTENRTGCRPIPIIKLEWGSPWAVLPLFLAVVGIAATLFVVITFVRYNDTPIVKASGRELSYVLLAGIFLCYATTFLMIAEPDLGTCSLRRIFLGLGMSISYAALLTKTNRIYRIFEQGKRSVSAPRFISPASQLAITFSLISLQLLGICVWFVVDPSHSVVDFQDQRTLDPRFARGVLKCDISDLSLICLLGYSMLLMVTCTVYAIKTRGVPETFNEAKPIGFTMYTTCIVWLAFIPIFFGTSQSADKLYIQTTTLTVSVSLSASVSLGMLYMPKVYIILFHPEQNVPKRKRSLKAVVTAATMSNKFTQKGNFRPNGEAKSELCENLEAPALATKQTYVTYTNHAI
Sequence of mGlu7 (Homo sapiens (Human), UniProt Q14831) (Q14831 35-915): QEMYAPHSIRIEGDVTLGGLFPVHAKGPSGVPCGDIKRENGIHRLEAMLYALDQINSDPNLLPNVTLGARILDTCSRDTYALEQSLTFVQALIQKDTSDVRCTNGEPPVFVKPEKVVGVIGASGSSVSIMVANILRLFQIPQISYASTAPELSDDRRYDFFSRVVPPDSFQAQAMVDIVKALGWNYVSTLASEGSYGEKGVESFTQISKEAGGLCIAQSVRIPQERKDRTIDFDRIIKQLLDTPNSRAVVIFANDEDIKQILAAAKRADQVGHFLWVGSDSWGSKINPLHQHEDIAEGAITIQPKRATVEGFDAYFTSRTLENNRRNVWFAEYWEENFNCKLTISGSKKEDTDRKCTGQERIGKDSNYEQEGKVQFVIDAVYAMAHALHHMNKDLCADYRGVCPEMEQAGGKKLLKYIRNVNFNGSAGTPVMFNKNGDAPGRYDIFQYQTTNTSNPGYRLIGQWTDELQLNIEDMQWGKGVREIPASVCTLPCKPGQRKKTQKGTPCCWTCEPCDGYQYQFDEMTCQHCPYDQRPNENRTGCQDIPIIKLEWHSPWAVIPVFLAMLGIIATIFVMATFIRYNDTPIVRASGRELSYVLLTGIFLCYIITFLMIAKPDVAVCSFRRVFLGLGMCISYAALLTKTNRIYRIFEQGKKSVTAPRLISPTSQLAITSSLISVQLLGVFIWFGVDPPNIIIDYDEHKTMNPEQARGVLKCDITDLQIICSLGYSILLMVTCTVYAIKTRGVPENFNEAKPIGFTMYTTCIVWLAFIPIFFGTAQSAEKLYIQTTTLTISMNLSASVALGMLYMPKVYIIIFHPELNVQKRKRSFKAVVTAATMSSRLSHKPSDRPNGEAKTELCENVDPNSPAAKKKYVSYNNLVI

As a reminder, the EC50 is the concentration giving half of the maximal effect. `N[C@@H](CCP(=O)(O)C(O)c1ccc(OCC(=O)O)cc1)C(=O)O` (stereo partly drawn) [Derivative 2, [((3S)-3-Amino-3-carboxy)propyl][(4-(carboxymethoxy)phenyl)hydroxymethyl]phosphinic Acid]: the “perception of mechanical acute pain (vocalization threshold to paw pressure)” value in assay [1] is listed as “does not modify the perception of the mechanical acute pain”. For the same molecule, the EC50 was determined as 0.11 ± 0.02 µM in assay [2]; 11.6 ± 1.9 µM in assay [4]; 29.2 ± 4.2 µM in assay [5] (transfected cells, calcium release, read-out: mGlu8 EC50 μM (n)). Moreover, the “mGlu7/4 EC50 ratio” value in assay [3] worked out at 100. The “mGlu8/4 EC50 ratio” value in assay [5] (ratio of mGlu8 EC50 to mGlu4 EC50) is 256. In addition, the “antihyperalgesic effect on vocalization threshold to paw pressure” value in assay [6] (carrageenan inflammatory pain, rats, 0.5-10 μg/rat i.t., FIG. 2) is recorded as “abolishes the excess of mechanical pain”. Further, the “antihyperalgesic effect compared to morphine” value in assay [6] (inflammatory pain, morphine 10 μg/rat i.t. as control) is listed as “close to the one of morphine”.
